Measurements published in US20230090868A1, “ANTI-CD30 ANTIBODY-DRUG CONJUGATES AND THEIR USE FOR THE TREATMENT OF NON-HODGKIN LYMPHOMA” (Seagen Inc., priority 2020, published 2023).
Like-named read-outs stand apart in the source and are kept apart here.

Assays:
R/R DLBCL = details: cited from earlier work
[1] = Phase I trial dose-escalation phase: maximum tolerated dose (MTD) and dose-limiting toxicities; type: in vivo, human; details: lenalidomide in combination with BV; by mouth Days 1-21 of each 21-day cycle; rel/ref DLBCL patients
Source text: The maximum tolerated dose (MTh) was defined as the dose level immediately below the dose level at which 2 patients of a cohort (of 2 to 6 patients) experienced dose-limiting toxicity during the first cycle. Dose escalations proceeded until the MTD was reached.
Hematologic dose limiting toxicity (DLT) was defined as any of the following that occured during the first cycle that were attributed as possibly, probably, or definitely related to the study treatment: • Grade 4 neutropenia >7 day duration • Grade 4 infection with grade 3 or 4 neutropenia (life-threatening sepsis) • Grade 4 thrombocytopenia associated with life-threatening bleeding or requiring more than 1 transfusion • Treatment delay >14 days due to hematologic toxicity
Non-hematologic DLT was defined as any possibly, probably, or definitely related grade 3 or grade 4 non-hematologic toxicity that occured during the first cycle with the following specific exceptions: • Grade 3 or 4 nausea, vomiting, or anorexia that returns to Grade 1 prior to the start of Cycle 2 • Grade 3 metabolic abnormalities (e.g., hyperglycemia) • Grade 3 fatigue
Dose escalations proceeded as follows after the occurrence of dose-limiting toxicity (DLT):
Dose escalation occurred after all patients in the cohort completed the first cycle according to the following scheme: […]

P-gp [2] = target: T1, P-gp (Homo sapiens, UniProt P08183); details: in vitro; cited from earlier work
T1 sequence (P08183 whole entry): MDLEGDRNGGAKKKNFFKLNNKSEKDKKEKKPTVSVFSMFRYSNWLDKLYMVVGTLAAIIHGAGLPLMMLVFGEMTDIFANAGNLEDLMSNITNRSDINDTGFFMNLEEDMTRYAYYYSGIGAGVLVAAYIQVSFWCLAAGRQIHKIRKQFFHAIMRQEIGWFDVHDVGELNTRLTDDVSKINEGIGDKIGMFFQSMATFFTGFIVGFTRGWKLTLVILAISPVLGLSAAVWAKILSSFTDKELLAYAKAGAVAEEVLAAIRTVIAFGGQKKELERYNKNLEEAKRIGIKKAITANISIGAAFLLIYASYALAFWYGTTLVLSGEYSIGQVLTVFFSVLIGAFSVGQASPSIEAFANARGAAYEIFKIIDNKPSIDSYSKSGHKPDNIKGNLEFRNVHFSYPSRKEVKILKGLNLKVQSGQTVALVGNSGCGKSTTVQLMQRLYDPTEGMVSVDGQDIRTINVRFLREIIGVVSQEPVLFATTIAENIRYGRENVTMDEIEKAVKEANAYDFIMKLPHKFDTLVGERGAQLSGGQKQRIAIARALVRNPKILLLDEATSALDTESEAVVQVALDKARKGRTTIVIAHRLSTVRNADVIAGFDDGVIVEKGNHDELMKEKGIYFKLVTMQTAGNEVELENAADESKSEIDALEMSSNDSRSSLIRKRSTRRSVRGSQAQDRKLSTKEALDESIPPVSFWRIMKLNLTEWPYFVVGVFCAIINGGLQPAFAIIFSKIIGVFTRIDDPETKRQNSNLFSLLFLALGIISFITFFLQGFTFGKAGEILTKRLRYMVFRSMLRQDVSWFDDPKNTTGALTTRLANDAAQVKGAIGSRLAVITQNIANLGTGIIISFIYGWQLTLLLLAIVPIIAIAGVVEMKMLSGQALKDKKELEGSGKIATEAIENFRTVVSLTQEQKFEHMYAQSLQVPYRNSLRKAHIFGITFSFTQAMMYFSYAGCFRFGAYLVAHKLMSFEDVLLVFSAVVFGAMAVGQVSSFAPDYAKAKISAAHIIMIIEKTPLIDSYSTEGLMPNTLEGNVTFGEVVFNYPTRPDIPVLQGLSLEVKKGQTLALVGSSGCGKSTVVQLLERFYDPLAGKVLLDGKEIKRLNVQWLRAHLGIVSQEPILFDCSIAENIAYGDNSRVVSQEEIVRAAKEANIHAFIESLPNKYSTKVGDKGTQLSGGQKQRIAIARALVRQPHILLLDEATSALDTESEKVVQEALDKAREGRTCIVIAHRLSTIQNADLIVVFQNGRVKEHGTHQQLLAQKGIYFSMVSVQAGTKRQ

[3] = cited from earlier work
[4] = single 25 mg dose with a high-fat meal, healthy subjects; cited from earlier work
P-gp [5] = target: T1, P-gp; details: controlled studies; cited from earlier work
CD30+ cell lines = details: in vitro; cited from earlier work
[6] = test system: xenograft models of Hodgkin disease; details: SCID mouse xenograft models of Hodgkin disease; cited from earlier work

| Molecule | median progression-free survival (PFS) (R/R DLBCL; GCB subjects, P=0.550) [weeks] | median progression-free survival (PFS) (R/R DLBCL; all subjects with R/R DLBCL, P=0.041) [weeks] | median progression-free survival (PFS) (R/R DLBCL; non-germinal-center B-cell-like (non-GCB) subjects, P=0.021) [weeks] | objective response rate (ORR) (R/R DLBCL; subjects with R/R DLBCL) [%] | maximum tolerated dose (MTD) [1] [mg] | substrate of P-gp (P-gp [2]) | drug accumulation ([3]; multiple doses at the recommended dosage) | time post-dose at which maximum plasma concentrations occurred ([3]; single and multiple doses, subjects with MM or MDS, (approximately 0.5 to 6 hours)) [h] | decrease in area under the concentration-time curve [4] [%] | decrease in maximum plasma concentration (Cmax) [4] [%] | PK interactions with P-gp substrates/inhibitors (P-gp [5]) | growth arrest of CD30+ cell lines (CD30+ cell lines) | antitumor activity [6] |
| --- | --- | --- | --- | --- | --- | --- | --- | --- | --- | --- | --- | --- | --- |
| Nc1cccc2c1CN(C1CCC(=O)NC1=O)C2=O (racemic) [lenalidomide, (RS)-3-(4-Amino-1-oxo-1,3-dihydro-2H-isoindol-2-yl)piperidine-2,6-dione] | 10.1 | 13.6 | 15.1 | 27.5 | 20 | weak substrate | does not result in drug accumulation | 1 | ~20 | ~50 | does not have clinically significant PK interactions | – | – |
| cAC10: chimeric IgG1 monoclonal antibody that specifically binds CD30 | – | – | – | – | – | – | – | – | – | – | – | induces growth arrest | pronounced antitumor activity |
